Several values for one entry are separate records, joined by “and”; a condition that tells them apart may be missing. Equal entries are not always repeated. Results filed as inconclusive are left out.
System: BDF1 mice, B16 melanoma s.c., survival/tumor T/C
Assay: NCI In Vivo Anticancer Drug Screen. Data for tumor model B16 Melanoma (subcutaneous) in B6D2F1 (BDF1) mice
Details: endpoint: median survival time, higher = longer survival
Description: The antitumor activity of compounds was measured in mice bearing transplantable tumors. Survival or tumor size were measured and the results are expressed as the measurement made in the treated group (T) divided by the measurement made in the vehicle treated control group (C). The tumor model used in this assay is B16 Melanoma (subcutaneous) in B6D2F1 (BDF1) mice

SMILES: C[n+]1c2ccccc2c(Nc2ccc(NS(=O)(=O)CCCCN=C(N)N)cc2)c2ccc(N)cc21
- T/C (dose: 1.5 mg/kg/injection, schedule: Q01DX009 (sc), vehicle: saline): 96 % of control
- T/C (dose: 3.0 mg/kg/injection, schedule: Q01DX009 (sc), vehicle: saline): 112 % of control
- T/C (dose: 6.0 mg/kg/injection, schedule: Q01DX009 (sc), vehicle: saline): 108 % of control

SMILES: CC(=O)Oc1ccccc1C(=O)O
- T/C (dose: 32.0 mg/kg/injection, schedule: Q01DX009 (ip), vehicle: saline): 95 % of control
- T/C (dose: 64.0 mg/kg/injection, schedule: Q01DX009 (ip), vehicle: saline): 88 % of control
- T/C (dose: 256.0 mg/kg/injection, schedule: Q01DX009 (ip), vehicle: saline): 116 % of control

SMILES: OC(CBr)C(O)C(O)C(O)CBr (centres undefined)
- T/C (dose: 20.0 mg/kg/injection, schedule: Q01DX009 (ip), vehicle: Klucel (hydroxypropylcellulose) (HPC)): 102 % of control
- T/C (dose: 40.0 mg/kg/injection, schedule: Q01DX009 (ip), vehicle: Klucel (hydroxypropylcellulose) (HPC)): 106 % of control
- T/C (dose: 125.0 mg/kg/injection, schedule: Q01DX009 (ip), vehicle: Klucel (hydroxypropylcellulose) (HPC)): 113 % of control
- T/C (dose: 150.0 mg/kg/injection, schedule: Q01DX009 (ip), vehicle: Klucel (hydroxypropylcellulose) (HPC)): 106 % of control
- T/C (dose: 250.0 mg/kg/injection, schedule: Q01DX009 (ip), vehicle: Klucel (hydroxypropylcellulose) (HPC)): 123 % of control

SMILES: N[C@H](C(=O)O)[C@@H]1CC(Cl)=NO1
- T/C (dose: 1.0 mg/kg/injection, schedule: Q01DX009 (ip), vehicle: saline): 87 % of control and 114 % of control
- T/C (dose: 1.4 mg/kg/injection, schedule: Q01DX009 (ip), vehicle: saline): 116 % of control
- T/C (dose: 2.0 mg/kg/injection, schedule: Q01DX009 (ip), vehicle: saline): 95 % of control and 105 % of control
- T/C (dose: 2.1 mg/kg/injection, schedule: Q01DX009 (ip), vehicle: saline): 120 % of control
- T/C (dose: 3.2 mg/kg/injection, schedule: Q01DX009 (ip), vehicle: saline): 124 % of control
- T/C (dose: 4.0 mg/kg/injection, schedule: Q01DX009 (ip), vehicle: saline): 90 % of control
- T/C (dose: 8.0 mg/kg/injection, schedule: Q01DX009 (ip), vehicle: saline): 108 % of control
- T/C (dose: 16.0 mg/kg/injection, schedule: Q01DX009 (ip), vehicle: saline): 101 % of control
- T/C (dose: 27.0 mg/kg/injection, schedule: Q04DX003 (ip), vehicle: saline): 120 % of control
- T/C (dose: 40.0 mg/kg/injection, schedule: Q01DX001 (ip), vehicle: saline): 103 % of control
- T/C (dose: 40.0 mg/kg/injection, schedule: Q04DX003 (ip), vehicle: saline): 119 % of control
- T/C (dose: 60.0 mg/kg/injection, schedule: Q01DX001 (ip), vehicle: saline): 113 % of control
- T/C (dose: 60.0 mg/kg/injection, schedule: Q04DX003 (ip), vehicle: saline): 124 % of control
- T/C (dose: 90.0 mg/kg/injection, schedule: Q01DX001 (ip), vehicle: saline): 112 % of control

SMILES: OC(CCl)CN1CC[N+]2(CC1)CC[N+]1(CCN(CC(O)CCl)CC1)CC2 (centres undefined)
- T/C (dose: 134.0 mg/kg/injection, schedule: Q01DX007 (ip), vehicle: saline): 162 % of control
- T/C (dose: 200.0 mg/kg/injection, schedule: Q01DX009 (ip), vehicle: saline): 112 % of control
- T/C (dose: 300.0 mg/kg/injection, schedule: Q01DX007 (ip), vehicle: saline): 173 % of control
- T/C (dose: 300.0 mg/kg/injection, schedule: Q01DX009 (ip), vehicle: saline): 161 % of control
- T/C (dose: 670.0 mg/kg/injection, schedule: Q01DX001 (ip), vehicle: saline): 108 % of control
- T/C (dose: 1000.0 mg/kg/injection, schedule: Q01DX001 (ip), vehicle: saline): 92 % of control
- T/C (dose: 1500.0 mg/kg/injection, schedule: Q01DX001 (ip), vehicle: saline): 120 % of control

SMILES: CC1(C)N=C(N)N=C(N)N1c1ccc(CNC(=O)Nc2cccc(S(=O)(=O)F)c2)cc1
- T/C (dose: 100.0 mg/kg/injection, schedule: Q04DX003 (ip), vehicle: saline): 100 % of control
- T/C (dose: 225.0 mg/kg/injection, schedule: Q04DX003 (ip), vehicle: saline): 122 % of control

SMILES: COC(=O)c1csc(-c2csc(CCN)n2)n1
- T/C (dose: 6.25 mg/kg/injection, schedule: Q01DX009 (ip), vehicle: water): 89 % of control
- T/C (dose: 12.5 mg/kg/injection, schedule: Q01DX009 (ip), vehicle: water): 98 % of control
- T/C (dose: 25.0 mg/kg/injection, schedule: Q01DX009 (ip), vehicle: water): 91 % of control
- T/C (dose: 50.0 mg/kg/injection, schedule: Q01DX009 (ip), vehicle: water): 117 % of control
- T/C (dose: 100.0 mg/kg/injection, schedule: Q01DX009 (ip), vehicle: water): 102 % of control

Source: PubChem BioAssay AID194 (DTP/NCI, 2004)
